Test results reported in patent US10550144B2, “6-aryl-9-glycosylpurines and use thereof” (UNIVERZITA PALACKEHO V OLOMOUCI, priority 2014, dated 2020).

Tests used:
[1] = tested on: Triticum aestivum cv. Hereward detached leaf segments; experiment: Senescence bioassay on detached wheat leaf segments (chlorophyll retention); format: in vivo; settings: for maximum effective concentration: 96 h incubation in the dark at 25° C., tested 10^−8 M to 10^−4 M
Method: Seeds of winter wheat, Triticum aestivum cv. Hereward, were washed under running water for 24 hours and then sown on vermiculite soaked with Knop's solution. They were placed in the growth chamber at 25° C. with a 16/8 h light period at 50 μmol·m^−2·s^−1. After 7 days, the first leaf was fully developed and the second leaf had started to grow. A tip section of the first leaf, approximately 35 mm long, was removed from 5 seedlings and trimmed slightly to a combined weight of 100 mg. The basal ends of the five leaf tips were placed in the wells of a microtiter polystyrene plate containing 150 μL of the tested derivative solution each. The entire plate was inserted into a plastic box lined with paper tissues soaked in distilled water to prevent leaf sections from drying out. After 96 h incubation in the dark at 25° C., the leaves were removed and chlorophyll extracted by heating at 80° C. for 10 min in 5 mL of 80% ethanol (v/v). The sample volume was then restored to 5 mL by the addition of 80% ethanol (v/v). The absorbance of the extract was recorded at 665 nm. In addition, chlorophyll extracts from fresh leaves and leaf tips incubated in deionised water were measured. The results are means of five replicates and the entire test was repeated twice. […] The compounds to be tested were dissolved in dimethylsulfoxide (DMSO) and the solution brought up to 10^−3M with distilled water. […] The activity obtained for 10^−4 M of BAP was postulated as 100%.

[2] = tested on: Dais cotinifolia shoot-tip explants; experiment: Shoot multiplication and shoot-tip necrosis in shoot cultures of Dais cotinifolia; format: in vivo; settings: after 8 weeks of culture
Method: Explants were washed thoroughly with 0.1% (v/v) of Tween® 20 for 2 min, and decontaminated with 70% ethanol for 15 sec followed by 0.2% aqueous HgCl2 for 10 min. The explants were rinsed five times with sterile distilled water. […] Each value was presented as the mean±standard error, with three replicates; each replicate consisting of 15 explants per treatment.

[3] = tested on: Gymnosporia buxifolia shoot-tip explants; experiment: Shoot-tip necrosis in in vitro cultures of Gymnosporia buxifolia; settings: after 4 weeks of culture
[4] = tested on: Amelanchier alnifolia nodal explants; experiment: Micropropagation growth response with BAP, Amelanchier alnifolia; settings: after 35 days in vitro, N = 9
[5] = tested on: Harpagophytum procumbens nodal explants; experiment: Micropropagation growth response with BAP, Harpagophytum procumbens; settings: after 35 days in vitro, N = 12
[6] = 10 μM BAP alone (Treatment No. 2)

## OC[C@H]1O[C@@H](n2cnc3c(NCc4ccc(Cl)cc4Cl)ncnc32)[C@H](O)[C@@H]1O [6-(2,4-dichlorbenzylamino)-9-riboside, reference compound]
[1]; chlorophyll content at the maximum effective concentration, 96 h in the dark
  activity (%) [10^−4 mol · l^−1 BAP = 100%]: 5 ± 1%

## OC[C@H]1O[C@@H](n2cnc3c(NCc4ccccc4Br)ncnc32)[C@@H](O)[C@@H]1O [6-(2-bromobenzylamino)-9-β-D-arabinofuranosylpurine]
[1]
  maximum effective concentration: 10^−5 mol · l^−1

## COc1ccc(CNc2ncnc3c2ncn3[C@@H]2O[C@H](CO)[C@@H](O)[C@@H]2O)cc1OC [6-(3,4-dimethoxybenzylamino)-9-β-D-arabinofuranosylpurine]
[1]
  maximum effective concentration: 10^−4 mol · l^−1

## OC[C@H]1O[C@@H](n2cnc3c(NCc4cccc(Br)c4)ncnc32)[C@@H](O)[C@@H]1O [6-(3-bromobenzylamino)-9-β-D-arabinofuranosylpurine]
[1]
  maximum effective concentration: 10^−4 mol · l^−1

## OC[C@H]1O[C@@H](n2cnc3c(NCc4cccc(Cl)c4)ncnc32)[C@@H](O)[C@@H]1O [6-(3-chlorobenzylamino)-9-β-D-arabinofuranosylpurine]
[1]
  maximum effective concentration: 10^−4 mol · l^−1

## OC[C@H]1O[C@@H](n2cnc3c(NCc4cccc(F)c4)ncnc32)[C@@H](O)[C@@H]1O [6-(3-fluorobenzylamino)-9-β-D-arabinofuranosylpurine]
[1]
  maximum effective concentration: 10^−4 mol · l^−1

## OC[C@H]1O[C@@H](n2cnc3c(NCc4cccc(I)c4)ncnc32)[C@@H](O)[C@@H]1O [6-(3-iodobenzylamino)-9-β-D-arabinofuranosylpurine]
[1]
  maximum effective concentration: 10^−4 mol · l^−1

## OC[C@H]1O[C@@H](n2cnc3c(NCc4ccc(Br)cc4)ncnc32)[C@@H](O)[C@@H]1O [6-(4-bromobenzylamino)-9-β-D-arabinofuranosylpurine]
[1]
  maximum effective concentration: 10^−4 mol · l^−1

## OC[C@H]1O[C@@H](n2cnc3c(NCc4ccco4)ncnc32)[C@@H](O)[C@@H]1O [6-furfurylamino-9-β-D-arabinofuranosylpurine]
[1]
  maximum effective concentration: 10^−4 mol · l^−1

## c1ccc(CNc2ncnc3nc[nH]c23)cc1 [BA, 6-benzylaminopurine, reference compound]
[2]; 10 μM in MS medium
  Morphogenesis in vitro: Dark green shoots + SBI
  STN [%] (shoot-tip necrosis): 61.5 ± 1.02a %
  Shoot length [cm]: 1.52 ± 0.26bc cm
  Shoots [explant^−1] […]: 3.4 ± 0.37a explant^−1
[3]; 10 μM in MS medium
  STN [%] (shoot-tip necrosis): 73.3 ± 0.20a %
  Shoot length [cm]: 1.92 ± 0.09b cm
  Shoots [explant^−1] […]: 1.0 ± 0.0a explant^−1
[4]; [6]
  Fresh weight (g) mean SE: 0.319 ± 0.1255 g
  Shoot length (mm) mean SE: 17.22 ± 1.770 mm
  Shoot no. mean SE: 7.7 ± 2.65
[5]; [6]
  Fresh weight (g) mean SE: 0.3614 ± 0.05563 g
  Shoot length (mm) mean SE: 19.4 ± 1.529 mm
  Shoot no. mean SE: 1.5 ± 0.167

## OC[C@H]1O[C@@H](n2cnc3c(NCc4ccccc4F)ncnc32)[C@@H](O)[C@@H]1O [Example 2FBAPA, 6-(2-fluorobenzylamino)-9-β-D-arabinofuranosylpurine]
[2]; 5 μM in MS medium
  Morphogenesis in vitro: Pale green shoots
  STN [%] (shoot-tip necrosis): 33.3 ± 0.74e %
  Shoot length [cm]: 1.12 ± 0.12bc cm
  Shoots [explant^−1] […]: 1.0 ± 0.00c explant^−1
[2]; 10 μM in MS medium
  Morphogenesis in vitro: Pale green shoots
  STN [%] (shoot-tip necrosis): 31.5 ± 1.18ef %
  Shoot length [cm]: 1.54 ± 0.16bc cm
  Shoots [explant^−1] […]: 1.6 ± 0.24bc explant^−1
[2]; 20 μM in MS medium
  Morphogenesis in vitro: Green shoots
  STN [%] (shoot-tip necrosis): 27.7 ± 0.74g %
  Shoot length [cm]: 1.90 ± 0.14ab cm
  Shoots [explant^−1] […]: 2.0 ± 0.32b explant^−1
[2]; 30 μM in MS medium
  Morphogenesis in vitro: Green shoots
  STN [%] (shoot-tip necrosis): 20.0 ± 0.44h %
  Shoot length [cm]: 2.40 ± 0.27a cm
  Shoots [explant^−1] […]: 2.3 ± 0.37b explant^−1
[3]; 5 μM in MS medium
  STN [%] (shoot-tip necrosis): 66.7 ± 0.32b %
  Shoot length [cm]: 1.02 ± 0.15bc cm
  Shoots [explant^−1] […]: 1.0 ± 0.0a explant^−1
[3]; 10 μM in MS medium
  STN [%] (shoot-tip necrosis): 58.0 ± 0.40c %
  Shoot length [cm]: 1.82 ± 0.13b cm
  Shoots [explant^−1] […]: 1.0 ± 0.0a explant^−1
[3]; 20 μM in MS medium
  STN [%] (shoot-tip necrosis): 42.0 ± 1.20f %
  Shoot length [cm]: 3.20 ± 0.17a cm
  Shoots [explant^−1] […]: 1.0 ± 0.0a explant^−1
[3]; 30 μM in MS medium
  STN [%] (shoot-tip necrosis): 26.6 ± 0.37h %
  Shoot length [cm]: 2.98 ± 0.12a cm
  Shoots [explant^−1] […]: 1.0 ± 0.0a explant^−1
[4]; 5 μM compound with 10 μM BAP
  Fresh weight (g) mean SE: 0.178 ± 0.0428 g
  Shoot length (mm) mean SE: 14.33 ± 2.754 mm
  Shoot no. mean SE: 7.2 ± 1.41
[4]; 10 μM compound with 10 μM BAP
  Fresh weight (g) mean SE: 0.529 ± 0.1739 g
  Shoot length (mm) mean SE: 14.67 ± 1.291 mm
  Shoot no. mean SE: 13.2 ± 3.44
[4]; 20 μM compound with 10 μM BAP
  Fresh weight (g) mean SE: 0.492 ± 0.0593 g
  Shoot length (mm) mean SE: 19.33 ± 2.571 mm
  Shoot no. mean SE: 15.4 ± 1.62
[4]; 30 μM compound with 10 μM BAP
  Fresh weight (g) mean SE: 0.584 ± 0.1564 g
  Shoot length (mm) mean SE: 16.44 ± 2.369 mm
  Shoot no. mean SE: 14.9 ± 2.40
[5]; 5 μM compound with 10 μM BAP
  Fresh weight (g) mean SE: 0.8764 ± 0.1818 g
  Shoot length (mm) mean SE: 19.8 ± 3.2721 mm
  Shoot no. mean SE: 1.7 ± 0.335
[5]; 10 μM compound with 10 μM BAP
  Fresh weight (g) mean SE: 0.6712 ± 0.1149 g
  Shoot length (mm) mean SE: 23.9 ± 3.195 mm
  Shoot no. mean SE: 2.5 ± 0.477
[5]; 20 μM compound with 10 μM BAP
  Fresh weight (g) mean SE: 0.8935 ± 0.231 g
  Shoot length (mm) mean SE: 34.9 ± 5.608 mm
  Shoot no. mean SE: 2.8 ± 0.291
[5]; 30 μM compound with 10 μM BAP
  Fresh weight (g) mean SE: 0.6877 ± 0.1009 g
  Shoot length (mm) mean SE: 23.7 ± 2.937 mm
  Shoot no. mean SE: 2.4 ± 0.267
